Measurements: patent publication US6447748B1, “Benzamide compounds for cancer imaging and therapy” (Research Corporation Technologies, Inc., priority 1993, dated 2002)

Key:
[1] = tested on: human melanoma xenograft tumors (A2058); assay: Scintigraphic imaging of nude mice bearing human melanoma xenografts; format: in vivo, Balb/c nu/nu mice
Protocol: A2058 cells, derived from a brain metastasis of human malignant melanoma (Todaro et al. 1980 Proc. Natl. Acad. Sci. USA 77: 5258) were obtained from the National Institutes of Health. A human lung adenocarcinoma cell line, NCI-838, was obtained from the National Cancer Institute. These cells were grown in DMEM2 medium (Dulbecco's modification of Eagle's medium, […]) supplemented with 10% fetal bovine serum and 0.03% L-glutamine.
Balb/c nu/nu mice (17-22 g) bearing human melanoma or non-small cell lung carcinoma xenograft tumors were injected intravenously with 0.2 ml of saline solution containing [^131I]PAB or [^131I]DAB (150-200 μCi). The animals were anesthetized with ketamine containing rompun before the imaging studies. The images were obtained using a scintigraphic camera with a pin-hole collimator at 6 and 24 hr. post injection.

[2] = Biodistribution of 4-[125I]PEMP in Sprague Dawley rats; format: in vivo; details: for Biodistribution Blood / Biodistribution Bone / Biodistribution Brain / Biodistribution Heart / Biodistribution Kidney / Biodistribution Liver / Biodistribution Lung / Biodistribution Muscle / Biodistribution Spleen / Biodistribution Thyroid: average of four rats
Protocol: Balb/c nu/nu mice (17-22 g) were injected intravenously with 0.2 ml of a saline solution containing [^125I]PAB (5-6 μCi). […] The values obtained were normalized to a mouse weighing 20 g.
Biodistribution experiments were performed to assess the clearance of N-[(4-[^125I]-iodophenyl)ethyl]-N-methyl-2-(1-piperidinyl)-ethylamine, 4-[^125I]PEMP. The compound was prepared according to the procedure described in Example 16. For in vivo studies, Sprague Dawley rats were used. Animal biodistribution assays were performed according to the procedure described in Example 11.

With `CCN(CC)CCNC(=O)c1ccc([131I])cc1` [[^131I]DAB, ^131I-N-(diethylaminoethyl)4-iodobenzamide, reference compound] the “detection in the tumor, scintigraphic image” value ([1]; 6 and 24 hrs. post injection) was “no [^131I]DAB was detected in the tumor” and the “uptake in the liver, scintigraphic image” value ([1]; 6 and 24 hrs. post-administration) was “considerable uptake”.
With `CN(CCc1ccc([125I])cc1)CCN1CCCCC1` [4-[^125I]PEMP, N-[(4-[^125I]-iodophenyl)ethyl]-N-methyl-2-(1-piperidinyl)-ethylamine] the “clearance” value [2] was “rapid clearance from the liver, lungs and kidneys”, the “Biodistribution Blood” value ([2]; 1 hr.) was 1.82 ± 0.20 % ID/whole organ and the “Biodistribution Bone” value ([2]; 1 hr.) was 0.23 ± 0.00 % ID/whole organ. For the same compound, the “Biodistribution Brain” value ([2]; 1 hr.) was 1.79 ± 0.21 % ID/whole organ, the “Biodistribution Heart” value ([2]; 1 hr.) was 0.30 ± 0.02 % ID/whole organ and the “Biodistribution Kidney” value ([2]; 1 hr.) was 4.57 ± 0.88 % ID/whole organ. The “Biodistribution Liver” value ([2]; 1 hr.) was 16.56 ± 2.19 % ID/whole organ, the “Biodistribution Lung” value ([2]; 1 hr.) was 4.91 ± 0.23 % ID/whole organ and the “Biodistribution Muscle” value ([2]; 1 hr.) was 15.60 ± 3.04 % ID/whole organ. For the same compound, the “Biodistribution Spleen” value ([2]; 1 hr.) was 2.52 ± 0.49 % ID/whole organ, the “Biodistribution Thyroid” value ([2]; 1 hr.) was 0.19 ± 0.02 % ID/whole organ and the “Biodistribution Blood” value ([2]; 6 hr.) was 2.59 ± 0.32 % ID/whole organ. The “Biodistribution Bone” value ([2]; 6 hr.) was 0.28 ± 0.01 % ID/whole organ, the “Biodistribution Brain” value ([2]; 6 hr.) was 0.57 ± 0.01 % ID/whole organ and the “Biodistribution Heart” value ([2]; 6 hr.) was 0.18 ± 0.00 % ID/whole organ. The “Biodistribution Kidney” value ([2]; 6 hr.) was 1.45 ± 0.03 % ID/whole organ, the “Biodistribution Liver” value ([2]; 6 hr.) was 6.39 ± 0.48 % ID/whole organ and the “Biodistribution Lung” value ([2]; 6 hr.) was 1.22 ± 0.12 % ID/whole organ. The “Biodistribution Muscle” value ([2]; 6 hr.) was 11.73 ± 0.63 % ID/whole organ, the “Biodistribution Spleen” value ([2]; 6 hr.) was 0.96 ± 0.10 % ID/whole organ and the “Biodistribution Thyroid” value ([2]; 6 hr.) was 0.20 ± 0.05 % ID/whole organ. For the same compound, the “Biodistribution Blood” value ([2]; 24 hr.) was 1.01 ± 0.12 % ID/whole organ, the “Biodistribution Bone” value ([2]; 24 hr.) was 0.17 ± 0.00 % ID/whole organ and the “Biodistribution Brain” value ([2]; 24 hr.) was 0.23 ± 0.00 % ID/whole organ. For the same compound, the “Biodistribution Heart” value ([2]; 24 hr.) was 0.05 ± 0.00 % ID/whole organ, the “Biodistribution Kidney” value ([2]; 24 hr.) was 0.50 ± 0.02 % ID/whole organ and the “Biodistribution Liver” value ([2]; 24 hr.) was 1.83 ± 0.16 % ID/whole organ. For the same compound, the “Biodistribution Lung” value ([2]; 24 hr.) was 0.34 ± 0.03 % ID/whole organ, the “Biodistribution Muscle” value ([2]; 24 hr.) was 5.55 ± 1.25 % ID/whole organ and the “Biodistribution Spleen” value ([2]; 24 hr.) was 0.28 ± 0.03 % ID/whole organ. For the same compound, the “Biodistribution Thyroid” value ([2]; 24 hr.) was 0.58 ± 0.03 % ID/whole organ.
